Data from patent publication US7063977B2, “Enzymatic resolution of t-butyl taxane derivatives” (Bristol-Myers Squibb Company, priority 2001, dated 2006).
Like-named read-outs stand apart in the source and are kept apart here.

Experiments:
tumors in mice = details: oral administration; AACR 1999 abstract 1905; cited from earlier work
[1] = oral administration; Eiseman et al., Suffness et al., quoted from WO 98/53811; cited from earlier work
[2] = up to 160 mg/kg/day, Suffness et al.; cited from earlier work
human tumor xenografts [3] = details: oral; xenografts implanted in athymic mice
sc M109 = details: oral, doses as high as 160 mg/kg/inj; toxic doses not reached; cited from earlier work
human tumor xenografts [4] = details: oral; xenografts implanted in athymic rates

| SMILES | oral activity against tumors in mice (tumors in mice) | absorbed when administered orally [1] | antitumor activity on oral administration [2] | activity of orally administered drug against human tumor xenografts (human tumor xenografts [3]) | efficacy in murine tumor models (sc M109) (sc M109) | activity of orally administered drug against human tumor xenografts (human tumor xenografts [4]) |
| --- | --- | --- | --- | --- | --- | --- |
| CC(=O)O[C@H]1C(=O)[C@@]2(C)[C@H]([C@H](OC(=O)c3ccccc3)[C@]34OC(=O)O[C@H]3[C@H](OC(=O)[C@H](O)[C@H](CC(C)C)NC(=O)OC(C)(C)C)C(C)=C1C4(C)C)[C@]1(OC(C)=O)CO[C@@H]1C[C@@H]2O [IDN-5109] | oral activity | – | – | – | – | – |
| CC(=O)O[C@H]1C(=O)[C@@]2(C)[C@H]([C@H](OC(=O)c3ccccc3)[C@]3(O)C[C@H](OC(=O)[C@H](O)[C@@H](NC(=O)c4ccccc4)c4ccccc4)C(C)=C1C3(C)C)[C@]1(OC(C)=O)CO[C@@H]1C[C@@H]2O [paclitaxel] | – | less than 1% | no evidence of antitumor activity | unsuccessful | without signs of any efficacy | unsuccessful |
